This note sets out measurements from patent publication US20040220224A1, “Method of treating irritable bowel syndrome” (Pfizer Inc, priority 2003, published 2004).

The test system of the experiment is female BALB/c or CD-1 mice. Kind of experiment: Intestinal motility model in mice (gastrointestinal transit of red dye). The format is in vivo. Particulars: mice fasted 24 h, red dye 1 h after treatment, measured 20 min later. The procedure: Intestinal Motility Model:
An intestinal motility model in mice may be used to evaluate of antimuscarinic compounds of formulae I-V as potential treatment for irritable bowel syndrome. In the studies, female BALB/c or CD-1 mice are fasted for 24 hours and then treated orally with one or more compounds of formulae I-V or vehicle. One hour after of treatment, the mice receive a red dye mixture via gastric gavage. Twenty minutes later, the animals are euthanized and the small intestine is removed. Gastrointestinal transit (GIT) is calculated using the measured length of the small intestine from the pyloric sphincter to the ileocecal junction and the distance traveled by the red dye front. Percent inhibition is indicated above bars.

With `Cc1ccc(O)c([C@H](CC[N+](C)(C(C)C)C(C)C)c2ccccc2)c1` [Example 3, (3R)-3-(2-Hydroxy-5-methylphenyl)-N,N-diisopropyl-N-methyl-3-phenylpropan-1-aminium bromide], the “inhibition of gastrointestinal transit (GIT)” value by setting is: (oral dose 10 mg/kg) 17%; (oral dose 30 mg/kg) 29%; (oral dose 60 mg/kg) 28%.
Taken in the same sequence, the figures for `C[N+]1(CCc2ccc3c(c2)CCO3)CC[C@@H](C(C(N)=O)(c2ccccc2)c2ccccc2)C1.[I-]` (stereo partly drawn) [Example 27, (3S)-3-(2-amino-2-oxo-1,1-diphenylethyl)-1-[2-(2,3-dihydro-1-benzofuran-5-yl)ethyl]-1-methylpyrrolidinium iodide] were 13%, 20% and 30%.
`NC(=O)C(c1ccccc1)(c1ccccc1)[C@@H]1CCN(CCc2ccc3c(c2)CCO3)C1` [reference compound]: the “inhibition of gastrointestinal transit (GIT)” value is given as “about 15%” (oral dose 30 mg/kg) and “about 15%” (oral dose 60 mg/kg).
